Here are results for two molecules from patent US8933015B2, “Macrocyclic inhibitors of flaviviridae viruses” (Gilead Sciences, Inc., priority 2010, dated 2015).

Read-outs that look alike come from different tables or passages of the source.

For the data set the following is noted: rcm bond, 22-membered ring, Hoveyda-Grubbs II, DCE, 1.5 h.

As to `CCO[C@@H]1CC/C=C/c2cccc(c2)COC(=O)[C@@H]2CCCN(N2)C(=O)[C@H](Cc2cccc(O[Si](C)(C)C(C)(C)C)c2)NC(=O)[C@H](C(C)C)NC(=O)[C@@H]1C`, where the note is “from C=CCC[C@@H](OCC)[C@@H](C)C(=O)N[C@H](C(=O)N[C@@H](Cc1cccc(O[Si](C)(C)C(C)(C)C)c1)C(=O)N1CCC[C@@H](C(=O)OCc2cccc(C=C)c2)N1)C(C)C, 2.53 mM, 83.0 °C”, the ring closure, isolated yield amounted to 66%. With `CO[C@@H]1CC/C=C/c2cccc(c2)[C@@H](C)OC(=O)[C@@H]2CCCN(N2)C(=O)[C@H](Cc2cccc(O[Si](C)(C)C(C)(C)C)c2)NC(=O)[C@H](C(C)C)NC(=O)C1`, where the note is “from C=CCC[C@H](CC(=O)N[C@H](C(=O)N[C@@H](Cc1cccc(O[Si](C)(C)C(C)(C)C)c1)C(=O)N1CCC[C@@H](C(=O)O[C@H](C)c2cccc(C=C)c2)N1)C(C)C)OC, 2.63 mM, 80.0 °C”, the ring closure, isolated yield amounted to 46%.
